Data published in patent publication US8067410B2, “Phenolic and catecholic amines and prodrugs thereof” (H. Lundbeck A/S, priority 2008, dated 2011).
Where a name gives a salt, the structure may show the parent alone. Read-outs that look alike come from different tables or passages of the source.

Columns and labels:
human D2 receptor = target: T1, human D2 receptor (Homo sapiens, UniProt P14416); assay: D2 cAMP assay; type: cell-based
T1 construct: expressed in transfected cells; host or cells: CHO cells
Method: The ability of the compounds to either stimulate or inhibit the D2 receptor mediated inhibition of cAMP formation in CHO cells transfected with the human D2 receptor was measure as follows. Cells were seeded in 96 well plates at a concentration of 8000 cells/well 3 days prior to the experiment. On the day of the experiment the cells were washed once in preheated G buffer (1 mM MgCl2, 0.9 mM CaCl2, 1 mM IBMX in PBS) and the assay was initiated by addition of 100 micro-1 of a mixture of 1 micro-M quinpirole, 10 microM forskolin and test compound in G buffer (antagonism) or 10 micro-M forskolin and test compound in G buffer (agonism). The cells were incubated 20 minutes at 37° C. and the reaction was stopped by the addition of 100 micro-1 S buffer (0.1 M HCl and 0.1 mM CaCl2) and the plates were placed at 4° C. for 1 h. 68 micro-L N buffer (0.15 M NaOH and 60 mM Sodium acetate) were added and the plates were shaken for 10 minutes. 60 micro-L of the reaction were transferred to cAMP FlashPlates (DuPont NEN) containing 40 micro-L 60 mM NaOAc pH 6.2 and 100 micro-L IC mix (50 mM NaOAc pH 6.2, 0.1% Sodium azide, 12 mM CaCl2, 1% BSA and 0.15 micro-Ci/ml ^125I-cAMP) were added. Following an 18 h incubation at 4° C. the plates were washed once and counted in a Wallac TriLux counter.

[1] = target: human recombinant D1 receptor (Homo sapiens, UniProt P21728); assay: D1 cAMP assay; type: cell-based
Method: The ability of the compounds to either stimulate or inhibit the D1 receptor mediated cAMP formation in CHO cells stably expressing the human recombinant D1 receptor was measured as follows. Cells were seeded in 96-well plates at a concentration of 11000 cells/well 3 days prior to the experiment. On the day of the experiment the cells were washed once in preheated G buffer (1 mM MgCl2, 0.9 mM CaCl2, 1 mM IBMX (3-i-butyl-1-methylxanthine) in PBS (phosphate buffered saline)) and the assay was initiated by addition of 100 micro-L of a mixture of 30 nM A68930 and test compound diluted in G buffer (antagonism) or test compound diluted in G buffer (agonism). The cells were incubated for 20 minutes at 37° C. and the reaction was stopped by the addition of 100 micro-L S buffer (0.1 M HCl and 0.1 mM CaCl2) and the plates were placed at 4° C. for 1 h. 68 micro-L N buffer (0.15 M NaOH and 60 mM NaOAc) was added and the plates were shaken for 10 minutes. 60 micro-1 of the reaction were transferred to cAMP FlashPlates (DuPont NEN) containing 40 micro-L 60 mM Sodium acetate pH 6.2 and 100 micro-L IC mix (50 mM Sodium acetate pH 6.2, 0.1% sodium azide, 12 mM CaCl2 1% BSA (bovine serum albumin) and 0.15 micro-Ci/mL ^125I-cAMP) were added. Following an 18 h incubation at 4° C. the plates were washed once and counted in a Wallac TriLux counter.

[2] = inhibition of forskolin-stimulated cAMP formation in CHO cells transfected with the human D2 receptor, read-out: D2 EC 50
[3] = cAMP formation in CHO cells stably expressing the human recombinant D1 receptor, read-out: D1 EC 50

human recombinant D1 receptor, sequence (P21728 whole entry): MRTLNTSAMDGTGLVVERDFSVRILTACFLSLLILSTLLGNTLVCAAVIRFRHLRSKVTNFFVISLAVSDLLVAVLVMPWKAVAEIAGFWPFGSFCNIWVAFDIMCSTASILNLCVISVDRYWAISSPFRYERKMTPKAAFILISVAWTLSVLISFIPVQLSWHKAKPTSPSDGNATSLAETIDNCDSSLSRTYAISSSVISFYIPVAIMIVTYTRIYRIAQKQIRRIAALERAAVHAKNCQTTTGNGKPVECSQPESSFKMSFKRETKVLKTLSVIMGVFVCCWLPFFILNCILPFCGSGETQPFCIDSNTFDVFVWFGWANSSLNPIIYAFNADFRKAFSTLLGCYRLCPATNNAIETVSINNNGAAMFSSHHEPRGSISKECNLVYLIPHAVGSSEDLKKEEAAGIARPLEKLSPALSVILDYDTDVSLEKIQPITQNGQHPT
T1 sequence (P14416 whole entry): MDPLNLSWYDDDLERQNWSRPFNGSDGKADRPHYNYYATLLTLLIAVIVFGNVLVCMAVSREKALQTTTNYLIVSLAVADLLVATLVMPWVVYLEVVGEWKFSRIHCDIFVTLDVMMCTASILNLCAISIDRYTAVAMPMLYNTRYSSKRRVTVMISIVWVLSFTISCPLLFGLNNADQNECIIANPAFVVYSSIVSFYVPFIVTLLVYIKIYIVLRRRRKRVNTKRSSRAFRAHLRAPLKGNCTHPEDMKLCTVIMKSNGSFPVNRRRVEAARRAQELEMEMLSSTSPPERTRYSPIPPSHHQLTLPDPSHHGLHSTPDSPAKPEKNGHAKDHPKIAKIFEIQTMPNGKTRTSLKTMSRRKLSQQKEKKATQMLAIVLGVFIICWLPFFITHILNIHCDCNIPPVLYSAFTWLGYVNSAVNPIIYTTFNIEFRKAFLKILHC

Compound | EC50 (human D2 receptor; [2]) [nM] | EC50 [1, 3] [µM] | EC50 (human D2 receptor) [nM] | EC50 [1] [µM]
CCCN1C[C@@H](CSC)O[C@@H]2Cc3c(cccc3OC)C[C@H]21 [Example 3c, (2S,4aR,10aR)-9-Methoxy-2-methylsulfanylmethyl-4-n-propyl-3,4,4a,5,10,10a-hexahydro-2H-naphtho[2,3-b][1,4]oxazine] | 110 | > 10 | – | –
CCCN1C[C@H](Cn2ccnc2)O[C@@H]2Cc3c(cccc3OC)C[C@H]21 [Example 3e, (2R,4aR,10aR)-2-Imidazol-1-ylmethyl-9-methoxy-4-n-propyl-3,4,4a,5,10,10a-hexahydro-2H-naphtho[2,3-b][1,4]oxazine] | – | – | 30 | 5.8
Oc1cccc2c1C[C@@H]1OCCN(CC3CC3)[C@H]1C2 [Example 5d2, (4aS,10aS)-4-cyclo-Propylmethyl-3,4,4a,5,10,10a-hexahydro-2H-naphtho[2,3-b][1,4]oxazin-9-ol hydrochloride] | – | – | 1400 | > 10
CCCN1C[C@H](C)O[C@@H]2Cc3c(O)cccc3C[C@H]21 [Example 5k, (2S,4aR,10aR)-2-Methyl-4-n-propyl-3,4,4a,5,10,10a-hexahydro-2H-naphtho[2,3-b][1,4]oxazin-9-ol trifluoroacetate] | – | – | 2 | 0.18
CCCN1CCO[C@@H]2Cc3c(ccc(O)c3O)C[C@H]21 [Example 7, (4aR,10aR)-4-n-Propyl-3,4,4a,5,10,10a-hexahydro-2H-naphtho[2,3-b][1,4]oxazine-8,9-diol trifluoroacetate] | – | – | 0.15 | 0.2
CCCN1CCO[C@@H]2Cc3c(ccc4c3OCO4)C[C@H]21 [Example 8c, (6aR,10aR)-7-n-Propyl-6a,7,8,9,10a,11-hexahydro-6H-1,3,10-trioxa-7-aza-cyclo-penta[a]anthracene trifluoroacetate] | 140 | > 10 | – | –
